A short description of data set [1]: Thiobarbituric acid reactive substances (TBARS/TBA) assay of oxidative rancidity. The conditions noted are these: for TBA value: mean for entire 14 day study period, 80% oxygen MAP, 2° C. An excerpt: (§1) Thiobarbituric acid assay (TBA) values and color of ground beef in 80% oxygen modified atmosphere packaging were examined. The additive compositions used for each treatment are identified in Table 3.
(§2) Co., of Troy Ohio) with a 0.60 cm plate and finely ground using a 0.32 cm plate. The MM, vitamin E and STP were manually mixed with the meat. Meat portions of about 130 grams each were placed in vacuum pouches. […] The meat samples were packaged in PVC-wrapped containers in 80% oxygen MAP (gas cylinder containing 80% oxygen and 20% carbon dioxide available from Praxair Distribution of Salt Lake City, Utah) to simulate retail packaging conditions and held for 14 days at 2° C., which is essentially the same as conventional retail packaging for ground beef. Thiobarbituric acid assay (TBA) and color readings were taken after 1, 4, 7 and 14 days.
[…]. Oxidation of fat-containing foods leads to the formation of malondialdehyde or derivates of this compound. […]. Duplicate samples (0.5 g) were mixed with 2.5 ml of solution containing 0.375% TBA (Sigma Chem. Co. of St. Louis, Mo.), 15% trichloroacetic acid (TCA) (Mallinckrodt Baker, Inc. of Paris, Ky.) and 0.25 N hydrochloric acid (HCl). The samples were heated for 10 minutes in a boiling water bath (100° C.) to develop a pink color, cooled in tap water and centrifuged (Sorvall Instruments, Model RC 5C, DuPont, Wilmington, Del.) at 6000 rpm for 10 minutes. The absorbance of the supernatant was measured spectrophotometrically (Spectronic 21D, Milton Roy, Rochester, N.Y.) at 532 nm against a blank that contained all of the reagents minus the meat. The malonaldehyde (MDA) concentration was calculated using an extinction coefficient of 1.56×10^5 M-cm^−1. The MDA concentration was converted to TBA number (mg MDA/kg sample) according to Equation (I): [formula] or to TBA number (parts per million) according to Equation (II): TBA number (ppm)=Sample A532×2.77 (II)
Samples were taken from the exterior surface and the interior portions of the meat and analyzed for rancidity using TBA analysis.

Data set [2] is described as follows: Hunter color redness (a*) measurement.
Source text: as §1, §2
The Hunter measurement standard uses the following scales: L=lightness, a=green and red and b=blue and yellow. The L*, a* and b* values were measured using a Hunter Lab Miniscan portable colorimeter (Reston, Va.), standardized using a white and black standard tile. The hue angle was calculated using the formula: hue angle=tan^−1(b*/a*).
Larger hue angles are associated with less red color, where hue angle=0 is red and hue angle=90 is yellow. The raw samples were scored for color, where 1=purple, 2=reddish purple, 3=bright red, 4=tan and 5=brown.

For vitamin E [Vit E], the TBA value in data set [1] (Vit E 50 ppm in ethanol) amounted to 1.67 a; in data set [1] (Vit E 50 ppm in mineral oil), 1.71 a; in data set [1] (Vit E 100 ppm in ethanol) it was 1.61 a; in data set [1] (Vit E 100 ppm in mineral oil) it was 1.74 a. The “TBA values compared with control” value in data set [1] (both vitamin E preparations (mineral oil, ethanol)) is “not significantly different from the control”. Moreover, in data set [1] (vitamin E in mineral oil or in ethanol, FIG. 1c, 1d), the “antioxidant effects (TBA values)” value was “no antioxidant effects”. In data set [2] (highest level of vitamin E in ethanol, by 14 days), the “a* values” was “lowest a* values”. Also, the “red color compared with controls” value in data set [2] (vitamin E in mineral oil, after 7 days) is reported as “significantly less red in color than the controls”. The “red color compared with control” value in data set [2] (vitamin E in oil or in ethanol, FIG. 2c, 2d) is “did not exhibit any more red color than control samples”.

For the compound `O=P(O)(O)OP(=O)(O)OP(=O)(O)O` [STP, sodium tripolyphosphate], the TBA values entry in data set [1] (0.25% STP and 0.5% STP, 7 and 14 days following packaging, FIG. 1b) is “low TBA values”; in data set [1] (higher level of STP (0.5%), after 14 days of storage), “less than 1”. For the same compound, the “TBA values compared with control” value in data set [1] (0.25% and 0.5% STP, 14 days following packaging) was “significantly lower”. For the same compound, the “TBA values compared with 0.25% STP treatment group” value in data set [1] (0.5% STP, 14 days) was “significantly lower”. In addition, the TBA value was 0.65 b in data set [1] (STP 0.25% by weight of meat) and 0.33 c in data set [1] (STP 0.5% by weight of meat). Besides, the “TBA values (effectiveness compared with 0.5% STP)” value in data set [1] (lower level of STP (0.25%), after 14 days of storage) is listed as “not as effective”. In addition, the “TBA values compared with treatments with vitamin E” value in data set [1] (p<0.05) is on record as “lower”. In data set [2] (0.5% STP, after 14 days, FIG. 2b), the “red color compared with 0.25% STP and controls” value is reported as “significantly more red color”. Further, the “color stability of raw ground beef” value in data set [2] (MM more than STP) is reported as “dramatically increased”.

Values taken from patent US20060257535A1, “Milk mineral compositions for use with raw meat products” (Glanbia Nutritionals (Ireland) Limited, priority 2005, published 2006).
